Assay results taken from patent publication US11351209B2 (priority 2016, dated 2022).
“Also recorded” adds a separate entry of the source.

Legend:
CT26 flank tumours = assay: Efficacy study, oral IC87114 and intravenous VVL15, CT26 flank tumours; assay type: in vivo, BALB/c mice; details: IC87114 50 mg kg^−1 oral gavage three hours before intravenous 1×10^8 PFU VVL15 (Group D), days 8, 11, 13, vs all other groups
orthotopic 4T1 tumours = assay: Efficacy study, oral IC87114 and intravenous VVL15, orthotopic 4T1 tumours; assay type: in vivo, BALB/c mice; details: 4T1 orthotopic; IC87114 75 mg kg^−1 oral gavage three hours before intravenous 1×10^8 PFU VVL15 (Group D), days 12, 15, 17; vs all other groups

With `Cc1ccccc1-n1c(Cn2cnc3c(N)ncnc32)nc2cccc(C)c2c1=O` [IC87114, 2-[(6-amino-9H-purin-9-yl)methyl]-5-methyl-3-(2-methylphenyl)-4(3H)-quinazolinone] the tumour burden (CT26 flank tumours) was “significantly reduces the tumour burden; also recorded: significantly less tumour burden; also recorded: reduced tumour burden” and the tumour burden (orthotopic 4T1 tumours) was “significantly reduces the tumour burden; also recorded: significantly less tumour burden; also recorded: reduced tumour burden”.
